Earlier results on 94 molecules are cited in paper PMC6696021, “Combined Ensemble Docking and Machine Learning in Identification of Therapeutic Agents with Potential Inhibitory Effect on Human CES1” (Molecules, 2019).

In this data set the target is CES1. More on the design: method as in earlier work. The note with it: Table S1, bioactivity from ChEMBL database; read-out: Ki_Nanomolar; cited from earlier work.

In the case of `O=C1C=Cc2ccccc2C1=O` [1-2-NAPHTHOQUINONE], the Ki was 930 nM.
In the case of `O=C1C(=O)c2ccccc2-c2ccccc21` [9-10-PHENANTHRENEQUINONE], the Ki was 2.5 nM.
On to `O=C1C(=O)c2cccc3cccc1c23` [ACENAPHTHOQUINONE], for which the Ki was 31 nM.
For `O=C(c1ccccc1)C(O)c1ccccc1` (stereo not shown) [BENZOIN], the Ki was 30400 nM.
Take `CCCCCCCCCCC(=O)C(F)(F)F` [CHEMBL86668]: the Ki was 76.8 nM.
For the molecule `CCCCCCCCSCC(=O)C(F)(F)F` [CHEMBL89506], the Ki is 97.4 nM.
`O=C1C(=O)N(Cc2ccccc2)c2ccccc21` [CHEMBL115581]: the Ki was 1700 nM.
As to `O=C1Nc2ccc(Br)cc2C1=O` [CHEMBL115897], the Ki was 31700 nM.
For `O=C(C(=O)c1ccc2ccccc2c1)c1ccc2ccccc2c1` [CHEMBL189162], the Ki was 256 nM.
On to `O=C(c1cccs1)C(O)c1cccs1` (stereo not shown) [CHEMBL190660], for which the Ki was 3100 nM.
As for `O=C(C(=O)c1cc(Br)cs1)c1cc(Br)cs1` [CHEMBL190672], the Ki was 20.8 nM.
`COc1ccc(C(=O)C(=O)c2ccc(OC)cc2)cc1` [CHEMBL191513]: the Ki is 3400 nM.
For the molecule `O=C(C(=O)c1cccc([N+](=O)[O-])c1)c1cccc([N+](=O)[O-])c1` [CHEMBL191796], the Ki was 18100 nM.
On to `COc1ccc(C(=O)C(=O)c2ccccc2Cl)cc1OC` [CHEMBL191822], for which the Ki was 3310 nM.
As to `Cc1ccc(C(=O)C(=O)c2ccccc2)cc1[N+](=O)[O-]` [CHEMBL191847], the Ki is 223 nM.
Regarding `O=C(C(=O)c1ccc(Cl)cc1)c1ccc(Cl)cc1` [CHEMBL192139], the Ki is 25100 nM.
In the case of `O=C(C(=O)c1ccc(Cl)cc1)c1ccccc1` [CHEMBL192180], the Ki was 37 nM.
`O=C(C(=O)c1ccc(CBr)cc1)c1ccccc1` [CHEMBL192241]: the Ki was 77.6 nM.
Turning to `Cc1ccc(C(=O)C(=O)c2ccc(Cl)cc2)cc1` [CHEMBL192252], the Ki was 159 nM.
As for `CC(=O)C(=O)c1ccccc1` [CHEMBL192258], the Ki is 5270 nM.
As for `O=C(C(=O)c1ccc(F)cc1)c1ccc(F)cc1` [CHEMBL192410], the Ki is 230 nM.
Regarding `COc1ccc(C(=O)C(=O)c2ccccc2)cc1` [CHEMBL192474], the Ki was 174 nM.
Consider `O=C(C(=O)c1ccc([N+](=O)[O-])cc1)c1ccccc1` [CHEMBL192589], for which the Ki was 214 nM.
As for `O=C(C(=O)c1ccc(Br)s1)c1ccc(Br)s1` [CHEMBL192592], the Ki was 142 nM.
Regarding `Cc1ccc(C(=O)C(=O)c2ccc(C)cc2)cc1` [CHEMBL192625], the Ki was 535 nM.
Consider `Cc1ccc(C(=O)C(=O)c2ccccc2)cc1C` [CHEMBL193140], for which the Ki was 79.2 nM.
For the molecule `O=C(C(=O)c1cc(F)c(F)c(F)c1)c1cc(F)c(F)c(F)c1` [CHEMBL193180], the Ki was 405 nM.
Take `O=C(C(=O)c1ccc(Br)cc1)c1ccc(Br)cc1` [CHEMBL193228]: the Ki is 66700 nM.
As to `O=C(C(=O)c1cc(F)cc(F)c1)c1cc(F)cc(F)c1` [CHEMBL193229], the Ki was 79.7 nM.
With `O=C(C(=O)c1c(Cl)c(Cl)c(Cl)c(Cl)c1Cl)c1c(F)c(F)c(F)c(F)c1F` [CHEMBL195713], the Ki was 1690 nM.
On to `COc1cc(NCN2C(=O)C(=O)c3ccccc32)cc(OC)c1OC` [CHEMBL221362], for which the Ki was 19500 nM.
For `O=C1Nc2c(Cl)cccc2C1=O` [CHEMBL222190], the Ki is 11400 nM.
With `O=C1Nc2c(ccc(Cl)c2Cl)C1=O` [CHEMBL222292], the Ki was 9400 nM.
Turning to `CCCCCCCCCCCCN1C(=O)C(=O)c2ccccc21` [CHEMBL222644], the Ki is 10 nM.
Turning to `O=C1C(=O)N(CNc2ccc(Cl)cc2)c2ccccc21` [CHEMBL222712], the Ki is 610 nM.
For the molecule `O=C1C(=O)N(Cc2ccc(Cc3ccc(CN4C(=O)C(=O)c5ccccc54)cc3)cc2)c2ccccc21` [CHEMBL222752], the Ki is 8 nM.
With `Cc1ccc(NCN2C(=O)C(=O)c3ccccc32)cc1` [CHEMBL222851], the Ki was 2650 nM.
In the case of `O=C1Nc2cc(Cl)c(Cl)cc2C1=O` [CHEMBL222988], the Ki is 21000 nM.
`O=C1C(=O)N(CCBr)c2ccccc21` [CHEMBL223000]: the Ki is 290 nM.
With `CC(=O)N1C(=O)C(=O)c2ccccc21` [CHEMBL223001], the Ki was 36000 nM.
In the case of `O=C1Nc2c(Cl)ccc(Cl)c2C1=O` [CHEMBL223039], the Ki is 590 nM.
For the molecule `C=C(C)CN1C(=O)C(=O)c2cc(Br)ccc21` [CHEMBL225169], the Ki was 66 nM.
Regarding `O=C(C(=O)C1CCCCC1)C1CCCCC1` [CHEMBL235287], the Ki is 38.5 nM.
Take `O=C1Cc2ccccc2C1=O` [CHEMBL235288]: the Ki is 5240 nM.
As to `O=C1C(=O)c2ccc([N+](=O)[O-])c3c([N+](=O)[O-])ccc1c23` [CHEMBL235289], the Ki is 570 nM.
Regarding `O=C1C(=O)c2cccc3c2N(CCC3)C1=O` [CHEMBL235290], the Ki is 5380 nM.
Turning to `O=C1C(=O)c2c3ccccc3cc3cccc1c23` [CHEMBL235503], the Ki was 1.5 nM.
Regarding `O=C1C(=O)c2cccnc2-c2ncccc21` [CHEMBL235504], the Ki was 5400 nM.
As for `O=C1C(=O)c2ccccc2CCc2ccccc21` [CHEMBL235931], the Ki is 2980 nM.
For the molecule `O=C(C(=O)c1ccc([N+](=O)[O-])cc1)c1ccc([N+](=O)[O-])cc1` [CHEMBL236340], the Ki is 9800 nM.
For `O=S(=O)(Nc1ccc(NS(=O)(=O)c2ccc(Cl)cc2)cc1)c1ccc(Cl)cc1` [CHEMBL254426], the Ki is 13700 nM.
Regarding `CCCCCCCCCCSCC(=O)C(F)(F)F` [CHEMBL270374], the Ki was 66.4 nM.
Consider `CCCCCCCCCCCCSCC(=O)C(F)(F)F` [CHEMBL270375], for which the Ki is 39.1 nM.
As to `CCCCC(=O)C(C)=O` [CHEMBL364588], the Ki is 16900 nM.
On to `O=C1C(=O)C(Cl)=C(Cl)C(Cl)=C1Cl` [CHEMBL364729], for which the Ki is 5440 nM.
Regarding `COC(OC)(C(=O)c1ccccc1)c1ccccc1` [CHEMBL364734], the Ki is 15300 nM.
Turning to `CC(C)(C)C1=CC(=O)C(=O)C(C(C)(C)C)=C1` [CHEMBL365161], the Ki is 88.6 nM.
Consider `O=C(C(=O)c1ccccc1Cl)c1ccccc1Cl` [CHEMBL365392], for which the Ki was 1650 nM.
For the molecule `O=C(C(=O)c1cccs1)c1cccs1` [CHEMBL365445], the Ki was 433 nM.
`O=C(O)c1ccc(C(=O)C(=O)c2ccccc2)cc1` [CHEMBL370059]: the Ki was 524 nM.
Turning to `O=C(C(=O)c1ccco1)c1ccco1` [CHEMBL371181], the Ki is 3610 nM.
Take `Cc1ccc(C(=O)C(=O)c2ccccc2)cc1` [CHEMBL371858]: the Ki is 125 nM.
As for `O=C(C(=O)c1ccsc1)c1ccsc1` [CHEMBL372716], the Ki was 1050 nM.
Consider `O=C(C(=O)c1ccccn1)c1ccccn1` [CHEMBL373345], for which the Ki is 245 nM.
As for `O=C1C(=O)N(CNc2ccccc2Br)c2ccccc21` [CHEMBL374758], the Ki is 36000 nM.
Regarding `O=C1C(=O)N(Cc2ccc(Cl)c(Cl)c2)c2ccccc21` [CHEMBL375126], the Ki was 31 nM.
On to `O=C1C(=O)N(CCI)c2ccccc21` [CHEMBL376518], for which the Ki is 130 nM.
In the case of `O=C1C(=O)N(CNc2ccc(Br)cc2)c2ccccc21` [CHEMBL385132], the Ki is 580 nM.
In the case of `O=C1Nc2cc(Cl)cc(Cl)c2C1=O` [CHEMBL385800], the Ki was 890 nM.
Take `O=C1C(=O)N2CCCc3cccc1c32` [CHEMBL395654]: the Ki is 1540 nM.
As to `O=C1C(=O)c2sccc2-c2ccsc21` [CHEMBL398109], the Ki was 150 nM.
Take `CCCCSCC(=O)C(F)(F)F` [CHEMBL402615]: the Ki is 400 nM.
As for `COc1cccc(C(=O)C(=O)c2cccc(OC)c2)c1` [CHEMBL435109], the Ki was 1540 nM.
As to `CCCCCCSCC(=O)C(F)(F)F` [CHEMBL440542], the Ki was 168 nM.
Consider `CCCCCCOCC(O)(O)C(F)(F)F` [CHEMBL449475], for which the Ki was 1660 nM.
With `CCCCCCS(=O)(=O)CC(O)(O)C(F)(F)F` [CHEMBL449775], the Ki is 4890 nM.
With `CCCCCCCC[S+]([O-])CC(O)(O)C(F)(F)F` (stereo not shown) [CHEMBL460806], the Ki is 7400 nM.
As to `CCCCCCCCS(=O)(=O)CC(O)(O)C(F)(F)F` [CHEMBL460807], the Ki is 757 nM.
As for `CCCCCC[S+]([O-])CC(O)(O)C(F)(F)F` (stereo not shown) [CHEMBL460808], the Ki was 39700 nM.
In the case of `O=C(CSCCc1ccccc1)C(F)(F)F` [CHEMBL460809], the Ki was 63.3 nM.
Consider `CCCCCCCCCCCC[S+]([O-])CC(O)(O)C(F)(F)F` (stereo not shown) [CHEMBL463556], for which the Ki is 953 nM.
In the case of `CCCCCCCCCC[S+]([O-])CC(O)(O)C(F)(F)F` (stereo not shown) [CHEMBL464002], the Ki is 2620 nM.
With `CCCCCCCCCCCCS(=O)(=O)CC(O)(O)C(F)(F)F` [CHEMBL467450], the Ki was 371 nM.
On to `CCCCCCCCCCS(=O)(=O)CC(O)(O)C(F)(F)F` [CHEMBL467451], for which the Ki was 397 nM.
`OC(O)(CSCCc1ccccc1)C(F)(F)F` [CHEMBL510996]: the Ki was 6900 nM.
In the case of `O=C(Nc1cccc(C(=O)C(=O)c2ccccn2)c1)c1ccc(C(F)(F)F)cc1` [CHEMBL1629724], the Ki was 437 nM.
`O=C(C(=O)c1ccccn1)c1cccc(NC(=O)c2ccc(Cl)cc2Cl)c1` [CHEMBL1630808]: the Ki is 279 nM.
In the case of `Cc1ccc(C(=O)Nc2cccc(C(=O)C(=O)c3ccccn3)c2)cc1` [CHEMBL1630810], the Ki was 1030 nM.
With `O=C(Nc1cccc(C(=O)C(=O)c2ccccn2)c1)c1ccc(F)c(F)c1` [CHEMBL1630811], the Ki was 1240 nM.
For the molecule `O=C(Nc1cccc(C(=O)C(=O)c2ccccn2)c1)c1cccc(Cl)c1` [CHEMBL1630814], the Ki was 756 nM.
With `O=C(Nc1cccc(C(=O)C(=O)c2ccccn2)c1)c1ccc(F)cc1` [CHEMBL1630816], the Ki was 381 nM.
For `O=C(Cc1ccccc1)C(=O)Cc1ccccc1` [CHEMBL1812850], the Ki was 3080 nM.
For the molecule `O=C(C(=O)C(Br)c1ccccc1)C(Br)c1ccccc1` (stereo not shown) [CHEMBL1812851], the Ki was 107 nM.
As for `O=C(Cc1ccccc1)C(=O)C(Br)c1ccccc1` (stereo not shown) [CHEMBL1812852], the Ki was 2630 nM.
